Measurements published in patent US20030215465A1, “Use of conjugated acid derivatives” (priority 2002, published 2003).

System: influenza virus
Assay: resistance inducing effect of CLA against viral airway infections in rats exposed intranasally to influenza virus
Assay type: in vivo
Details: rats fed 1% CLA (FFA) for 5 weeks before intranasal influenza exposure; FIG. 1

For Conjugated Linoleic Acid [CLA], the lungweight was “increased”.
